From PubChem BioAssay (NCI)
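The compound was tested at five concentrations on cells cultured in 96-well plates, with a 48-hour exposure period. GI50 is the concentration that inhibits growth by half. TGI: total growth inhibition.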

Legend:
Test in all cases: NCI tumour cell line growth inhibition, 48 h
786-0 renal = test system: 786-0 renal
A498 renal = test system: A498 renal
A549 NSCLC = test system: A549 NSCLC
ACHN renal = test system: ACHN renal
BT-549 breast = test system: BT-549 breast
CAKI-1 renal = test system: CAKI-1 renal
CCRF-CEM leukemia = test system: CCRF-CEM leukemia
COLO 205 colon = test system: COLO 205 colon
EKVX NSCLC = test system: EKVX NSCLC
HCC-2998 colon = test system: HCC-2998 colon
HCT-116 colon = test system: HCT-116 colon
HCT-15 colon = test system: HCT-15 colon
HL-60(TB) leukemia = test system: HL-60(TB) leukemia
HOP-62 NSCLC = test system: HOP-62 NSCLC
HOP-92 NSCLC = test system: HOP-92 NSCLC
HS 578T breast = test system: HS 578T breast
HT29 colon = test system: HT29 colon
IGROV1 ovarian = test system: IGROV1 ovarian
K-562 leukemia = test system: K-562 leukemia
KM12 colon = test system: KM12 colon
LOX IMVI melanoma = test system: LOX IMVI melanoma
M14 melanoma = test system: M14 melanoma
MALME-3M melanoma = test system: MALME-3M melanoma
MCF7 breast = test system: MCF7 breast
MDA-MB-231 breast = test system: MDA-MB-231 breast
MDA-MB-435 = test system: MDA-MB-435
MOLT-4 leukemia = test system: MOLT-4 leukemia
NCI-H226 lung = test system: NCI-H226 lung
NCI-H460 lung = test system: NCI-H460 lung
NCI-H522 lung = test system: NCI-H522 lung
NCI/ADR-RES ovarian = test system: NCI/ADR-RES ovarian
OVCAR-4 ovarian = test system: OVCAR-4 ovarian
OVCAR-5 ovarian = test system: OVCAR-5 ovarian
OVCAR-8 ovarian = test system: OVCAR-8 ovarian
PC-3 prostate = test system: PC-3 prostate
RPMI-8226 leukemia = test system: RPMI-8226 leukemia
RXF 393 renal = test system: RXF 393 renal
SF-268 CNS = test system: SF-268 CNS
SF-295 CNS = test system: SF-295 CNS
SF-539 CNS = test system: SF-539 CNS
SK-MEL-2 melanoma = test system: SK-MEL-2 melanoma
SK-MEL-28 melanoma = test system: SK-MEL-28 melanoma
SK-MEL-5 melanoma = test system: SK-MEL-5 melanoma
SK-OV-3 ovarian = test system: SK-OV-3 ovarian
SN12C renal = test system: SN12C renal
SNB-19 CNS = test system: SNB-19 CNS
SNB-75 CNS = test system: SNB-75 CNS
SW-620 colon = test system: SW-620 colon
TK-10 renal = test system: TK-10 renal
U251 CNS = test system: U251 CNS
UACC-257 melanoma = test system: UACC-257 melanoma
UACC-62 melanoma = test system: UACC-62 melanoma
DU-145 prostate = test system: DU-145 prostate
NCI-H23 lung = test system: NCI-H23 lung
OVCAR-3 ovarian = test system: OVCAR-3 ovarian
UO-31 renal = test system: UO-31 renal

## N#Cc1c(-c2ccc([N+](=O)[O-])cc2)c(C#N)c(=O)n(NS(=O)(=O)c2ccccc2)c1-c1ccccc1
786-0 renal
  TGI: > 100000 nM
A498 renal
  TGI: > 100000 nM
A549 NSCLC
  TGI: > 100000 nM
ACHN renal
  TGI: > 100000 nM
BT-549 breast
  TGI: > 100000 nM
CAKI-1 renal
  TGI: > 100000 nM
CCRF-CEM leukemia
  TGI: > 100000 nM
COLO 205 colon
  TGI: > 100000 nM
EKVX NSCLC
  TGI: > 100000 nM
HCC-2998 colon
  TGI: > 100000 nM
HCT-116 colon
  TGI: > 100000 nM
HCT-15 colon
  TGI: > 100000 nM
HL-60(TB) leukemia
  TGI: > 100000 nM
HOP-62 NSCLC
  TGI: > 100000 nM
HOP-92 NSCLC
  TGI: > 100000 nM
HS 578T breast
  TGI: > 100000 nM
HT29 colon
  TGI: > 100000 nM
IGROV1 ovarian
  TGI: > 100000 nM
K-562 leukemia
  TGI: > 100000 nM
KM12 colon
  TGI: > 100000 nM
LOX IMVI melanoma
  TGI: > 100000 nM
M14 melanoma
  TGI: > 100000 nM
MALME-3M melanoma
  TGI: > 100000 nM
MCF7 breast
  TGI: > 100000 nM
MDA-MB-231 breast
  TGI: > 100000 nM
MDA-MB-435
  TGI: > 100000 nM
MOLT-4 leukemia
  TGI: > 100000 nM
NCI-H226 lung
  TGI: > 100000 nM
NCI-H460 lung
  TGI: > 100000 nM
NCI-H522 lung
  TGI: > 100000 nM
NCI/ADR-RES ovarian
  TGI: > 100000 nM
OVCAR-4 ovarian
  TGI: > 100000 nM
OVCAR-5 ovarian
  TGI: > 100000 nM
OVCAR-8 ovarian
  TGI: > 100000 nM
PC-3 prostate
  TGI: > 100000 nM
RPMI-8226 leukemia
  TGI: > 100000 nM
RXF 393 renal
  TGI: > 100000 nM
SF-268 CNS
  TGI: > 100000 nM
SF-295 CNS
  TGI: > 100000 nM
SF-539 CNS
  TGI: > 100000 nM
SK-MEL-2 melanoma
  TGI: > 100000 nM
SK-MEL-28 melanoma
  TGI: > 100000 nM
SK-MEL-5 melanoma
  TGI: > 100000 nM
SK-OV-3 ovarian
  TGI: > 100000 nM
SN12C renal
  TGI: > 100000 nM
SNB-19 CNS
  TGI: > 100000 nM
SNB-75 CNS
  TGI: > 100000 nM
SW-620 colon
  TGI: > 100000 nM
TK-10 renal
  TGI: > 100000 nM
U251 CNS
  TGI: > 100000 nM
UACC-257 melanoma
  TGI: > 100000 nM
UACC-62 melanoma
  TGI: > 100000 nM

## C=CCN(CC=C)C(=O)[C@H](CC)[C@@H]1CC[C@@H](C)[C@@H]([C@H](C)[C@@H](O)[C@@H](C)C(=O)[C@H](CC)C2O[C@]3(C=CC(=O)[C@]4(CC[C@@](C)([C@H]5CC[C@](O)(CC)[C@H](C)O5)O4)O3)[C@H](C)C[C@@H]2C)O1 (stereo not given in full)
CAKI-1 renal
  GI50: 1960 nM
  TGI: > 100000 nM
CCRF-CEM leukemia
  GI50: 2650 nM
  TGI: > 100000 nM
HCT-116 colon
  GI50: 2760 nM
  TGI: > 100000 nM
K-562 leukemia
  GI50: 2310 nM
  TGI: > 100000 nM
PC-3 prostate
  GI50: 2020 nM
  TGI: > 100000 nM

## COCCCC(NC(=O)C(CC(C)C)NC(=O)OCc1ccc(OC)cc1)C(N)=O (stereo not given)
OVCAR-4 ovarian
  GI50: 47.2 µg/mL

## CN1CCN(CCOc2ccc(-c3cnc4c(-c5ccc(C(F)(F)F)cc5)cnn4c3)cc2)CC1
786-0 renal
  GI50: 1670 nM
  TGI: 3160 nM
A498 renal
  GI50: 1370 nM
  TGI: 2760 nM
A549 NSCLC
  GI50: 1630 nM
  TGI: 3300 nM
ACHN renal
  GI50: 1570 nM
  TGI: 2910 nM
BT-549 breast
  GI50: 1620 nM
  TGI: 3040 nM
CAKI-1 renal
  GI50: 1420 nM
  TGI: 2720 nM
DU-145 prostate
  GI50: 1590 nM
  TGI: 2930 nM
EKVX NSCLC
  GI50: 1510 nM
  TGI: 2970 nM
HCC-2998 colon
  GI50: 1670 nM
  TGI: 3340 nM
HCT-116 colon
  GI50: 1380 nM
  TGI: 2810 nM
HCT-15 colon
  GI50: 1020 nM
  TGI: 2310 nM
HOP-62 NSCLC
  GI50: 1630 nM
  TGI: 3550 nM
HOP-92 NSCLC
  GI50: 1070 nM
  TGI: 2330 nM
HS 578T breast
  GI50: 1620 nM
  TGI: 3410 nM
HT29 colon
  GI50: 993 nM
  TGI: 2380 nM
IGROV1 ovarian
  GI50: 1550 nM
  TGI: 3060 nM
KM12 colon
  GI50: 1710 nM
  TGI: 3210 nM
LOX IMVI melanoma
  GI50: 1620 nM
  TGI: 3150 nM
M14 melanoma
  GI50: 1700 nM
  TGI: 3250 nM
MALME-3M melanoma
  GI50: 1480 nM
  TGI: 2890 nM
MCF7 breast
  GI50: 1210 nM
  TGI: 2860 nM
MDA-MB-231 breast
  GI50: 1500 nM
  TGI: 2950 nM
MDA-MB-435
  GI50: 1610 nM
  TGI: 3020 nM
NCI-H23 lung
  GI50: 1620 nM
  TGI: 3140 nM
NCI-H460 lung
  GI50: 1160 nM
  TGI: 2440 nM
NCI-H522 lung
  GI50: 1550 nM
  TGI: 3160 nM
OVCAR-3 ovarian
  GI50: 1550 nM
  TGI: 2940 nM
OVCAR-4 ovarian
  GI50: 1160 nM
  TGI: 2480 nM
OVCAR-5 ovarian
  GI50: 1590 nM
  TGI: 2960 nM
OVCAR-8 ovarian
  GI50: 1750 nM
  TGI: 3460 nM
PC-3 prostate
  GI50: 1430 nM
  TGI: 2860 nM
RXF 393 renal
  GI50: 1550 nM
  TGI: 3070 nM
SF-268 CNS
  GI50: 1700 nM
  TGI: 3440 nM
SF-295 CNS
  GI50: 1750 nM
  TGI: 3310 nM
SF-539 CNS
  GI50: 1640 nM
  TGI: 3040 nM
SK-MEL-2 melanoma
  GI50: 1820 nM
  TGI: 3520 nM
SK-MEL-28 melanoma
  GI50: 1680 nM
  TGI: 3110 nM
SK-MEL-5 melanoma
  GI50: 1630 nM
  TGI: 3030 nM
SN12C renal
  GI50: 1660 nM
  TGI: 3100 nM
SNB-19 CNS
  GI50: 1720 nM
  TGI: 3220 nM
SNB-75 CNS
  GI50: 1500 nM
  TGI: 2880 nM
SW-620 colon
  GI50: 1760 nM
  TGI: 3270 nM
TK-10 renal
  GI50: 1720 nM
  TGI: 3240 nM
U251 CNS
  GI50: 1300 nM
  TGI: 2670 nM
UACC-257 melanoma
  GI50: 1660 nM
  TGI: 3340 nM
UACC-62 melanoma
  GI50: 1690 nM
  TGI: 3130 nM
UO-31 renal
  GI50: 1340 nM
  TGI: 2650 nM

## C=CC1CN2CCC1CC2C(O)c1ccnc2ccc(OC)cc12 (stereo not given)
A498 renal
  GI50: > 100000 nM
  TGI: > 100000 nM
MALME-3M melanoma
  GI50: > 100000 nM
  TGI: > 100000 nM
NCI-H23 lung
  GI50: > 100000 nM
  TGI: > 100000 nM
RPMI-8226 leukemia
  GI50: 53000 nM
  TGI: > 100000 nM
